# Patent US12391679B2, “Benzamide-substituted bicyclic imidazo- and pyrazolo-fused -pyridine, -pyrimide, and -pyridazine compounds for treatment of inflammatory diseases” (ONCO3R Therapeutics BV, priority 2019, dated 2025)
# System: C57BL/6N mice, bleomycin induced pulmonary fibrosis
# Assay: Therapeutic bleomycin induced pulmonary fibrosis 21-day mice model
# Format: in vivo
# Conditions: mouse, bleomycin 21-day; 10 mg/kg p.o. b.i.d. in PEG200/MC 0.5% 20/80 (v/v); meta-analysis of two pooled identical study runs
# Experimental: The aim of the study is to test the efficacy of a test compound at three different doses in a 21-day model of bleomycin induced pulmonary fibrosis in mice.
# This study is carried out on C57BL/6N male mice, supplied by Charles River (Calco, Italy), which are acclimatized for at least 5 days in an environment maintained at 22° C., at 55% relative humidity, with 15-20 air changes per hour under light cycles of 12 h. Mice pelleted food and water are provided ad libitum.
# The solvent for the test solutions is prepared by adding 0.5 g of hydroxyethylcellulose (Natrosol™) into 500 mL aqua distillate (0.1%) under continuous stirring without heating for 5 h on a magnetic stirrer.
# To prepare a solution for intranasal (i.n.) challenge, 0.8 mg/mL stock solutions of bleomycin (Cat #BML-AP302-0010, Enzo Life Sciences, Inc., USA) are thawed and diluted in 330 μL of saline. Prior to i.n. administration, mice are anesthetized i.p.
# Finally, test compound solutions are prepared by dissolving the suitable amount of said test compound in PEG 400 or PEG 200 (20% of the final volume) then MC 0.5% (80% of the final volume) to reach final concentrations of 1 mg/mL, 0.3 mg/mL and 0.1 mg/mL, thus yielding compound for a doses of 10 mg/kg, 3 mg/kg and 1 mg/kg. […]
# Pulmonary histological changes are assessed using Matsuse modification of Ashcroft score (Ashcroft et al. 1988; Matsuse et al. 1999). […]
smiles,measurement,value
"COc1cc(-c2cnn3cc(C(C)(C)C#N)ccc23)cc(OC(F)F)c1C(=O)N[C@@H]1C[C@@H]1F [Cpd 219, 4-[6-(1-cyano-1-methyl-ethyl)pyrazolo[1,5-a]pyridin-3-yl]-2-(difluoromethoxy)-N-[(1R,2S)-2-fluorocyclopropyl]-6-methoxy-benzamide]",Ashcroft score compared to the vehicle group,statistically significant decrease
